From US12077503B2, “Substituted cyclic amides and their use as herbicides” (FMC CORPORATION, priority 2015, dated 2024)

Experiments:
Format in all cases: in vivo
[1] = test system: barnyardgrass (Echinochloa crus-galli); assay: Test G Post-Emergence Protocol; settings: Echinochloa crus-galli, post-emergence, 312 h; for pest or weed control at 15.625 g/ha: 15.625 g ai/ha, evaluated after 13 days (100=total damage to plant; 0=no damage to plant), read-out: Barnyardgrass damage rating; for pest or weed control at 62.5 g/ha: 62.5 g ai/ha, read-out: Barnyardgrass damage rating (100=total damage to plant; 0=no damage to plant); for pest or weed control at 62.5 g/ha / pest or weed control at 250 g/ha: evaluated after 13 days; for pest or weed control at 250 g/ha: 250 g ai/ha, read-out: damage to plant, Barnyardgrass (100=total damage to plant; 0=no damage to plant)
Summary of the method: (§1)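 Scores run 0 (no damage) to 100 (total damage) and were taken 13 days after spraying. Plants had been raised in pots for 8 days under glasshouse control (24/16 °C, 14 h photoperiod, 65% humidity) and then treated at 15.625, 62.5 or 250 g/ha.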

[2] = test system: velvetleaf (Abutilon theophrasti); assay: Test G Post-Emergence Protocol; settings: Abutilon theophrasti, post-emergence, 312 h; for pest or weed control at 15.625 g/ha: 15.625 g ai/ha, evaluated after 13 days (100=total damage to plant; 0=no damage to plant), read-out: Velvetleaf damage rating; for pest or weed control at 62.5 g/ha: 62.5 g ai/ha, read-out: Velvetleaf damage rating (100=total damage to plant; 0=no damage to plant); for pest or weed control at 62.5 g/ha / pest or weed control at 250 g/ha: evaluated after 13 days; for pest or weed control at 250 g/ha: 250 g ai/ha, read-out: damage to plant, Velvetleaf (100=total damage to plant; 0=no damage to plant)
Summary of the method: as §1

[3] = test system: redroot pigweed (Amaranthus retroflexus); assay: Test G Post-Emergence Protocol; settings: Amaranthus retroflexus, post-emergence, 312 h; for pest or weed control at 15.625 g/ha: 15.625 g ai/ha, evaluated after 13 days (100=total damage to plant; 0=no damage to plant), read-out: Pigweed, Redroot damage rating; for pest or weed control at 62.5 g/ha: 62.5 g ai/ha, read-out: Pigweed, Redroot damage rating (100=total damage to plant; 0=no damage to plant); for pest or weed control at 62.5 g/ha / pest or weed control at 250 g/ha: evaluated after 13 days; for pest or weed control at 250 g/ha: 250 g ai/ha, read-out: damage to plant, Pigweed, Redroot (100=total damage to plant; 0=no damage to plant)
Summary of the method: as §1

[4] = test system: ivy-leaved morning glory (Ipomoea hederacea); assay: Test G Post-Emergence Protocol; settings: Ipomoea, post-emergence, 312 h; for pest or weed control at 15.625 g/ha: 15.625 g ai/ha, evaluated after 13 days (100=total damage to plant; 0=no damage to plant), read-out: Morningglory, Ivy-leaved damage rating; for pest or weed control at 62.5 g/ha: 62.5 g ai/ha, read-out: Morningglory, Ivy-leaved damage rating (100=total damage to plant; 0=no damage to plant); for pest or weed control at 62.5 g/ha / pest or weed control at 250 g/ha: evaluated after 13 days; for pest or weed control at 250 g/ha: 250 g ai/ha, read-out: damage to plant, Morningglory, Ivy-leaved (100=total damage to plant; 0=no damage to plant)
Summary of the method: as §1

[5] = test system: giant foxtail (Setaria faberi); assay: Test G Post-Emergence Protocol; settings: Setaria faberi, post-emergence, 312 h; for pest or weed control at 15.625 g/ha: 15.625 g ai/ha, evaluated after 13 days (100=total damage to plant; 0=no damage to plant), read-out: Foxtail, Giant damage rating; for pest or weed control at 62.5 g/ha: 62.5 g ai/ha, read-out: Foxtail, Giant damage rating (100=total damage to plant; 0=no damage to plant); for pest or weed control at 62.5 g/ha / pest or weed control at 250 g/ha: evaluated after 13 days; for pest or weed control at 250 g/ha: 250 g ai/ha, read-out: damage to plant, Foxtail, Giant (100=total damage to plant; 0=no damage to plant)
Summary of the method: as §1

corn (Zea mays) [6] = assay: Test G Post-Emergence Protocol; settings: Zea mays, post-emergence, 312 h; for plant injury at 15.625 g/ha: 15.625 g ai/ha, evaluated after 13 days (100=total damage to plant; 0=no damage to plant), read-out: Corn damage rating; for plant injury at 62.5 g/ha: 62.5 g ai/ha, read-out: Corn damage rating (100=total damage to plant; 0=no damage to plant); for plant injury at 62.5 g/ha / plant injury at 250 g/ha: evaluated after 13 days; for plant injury at 250 g/ha: 250 g ai/ha, read-out: damage to plant, Corn (100=total damage to plant; 0=no damage to plant)
Summary of the method: as §1

[7] = test system: barnyardgrass (Echinochloa crus-galli); assay: Test G Pre-Emergence Protocol; settings: Echinochloa crus-galli, pre-emergence, 312 h, evaluated after 13 days; for pest or weed control at 15.625 g/ha: 15.625 g ai/ha, read-out: Barnyard grass damage rating (100=total damage to plant; 0=no damage to plant); for pest or weed control at 62.5 g/ha: 62.5 g ai/ha, 100=total damage to plant, 0=no damage to plant, read-out: plant damage rating, Barnyardgrass; for pest or weed control at 250 g/ha: 250 g ai/ha, read-out: Barnyardgrass damage rating (100=total damage to plant; 0=no damage to plant)
Summary of the method: (§2)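 Spraying took place one day after sowing, at 15.625, 62.5 or 250 g/ha, using an acetone/water (50:50) spray solution containing 0.5% Tween 20. Plants were kept under glasshouse conditions (24/16 °C, 14 h light, 65% humidity, watered twice daily), and injury was rated 0–100 at day 13.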

[8] = test system: velvetleaf (Abutilon theophrasti); assay: Test G Pre-Emergence Protocol; settings: Abutilon theophrasti, pre-emergence, 312 h, evaluated after 13 days; for pest or weed control at 15.625 g/ha: 15.625 g ai/ha; for pest or weed control at 15.625 g/ha / pest or weed control at 250 g/ha: read-out: Velvetleaf damage rating (100=total damage to plant; 0=no damage to plant); for pest or weed control at 62.5 g/ha: 62.5 g ai/ha, 100=total damage to plant, 0=no damage to plant, read-out: plant damage rating, Velvetleaf; for pest or weed control at 250 g/ha: 250 g ai/ha
Summary of the method: as §2

[9] = test system: redroot pigweed (Amaranthus retroflexus); assay: Test G Pre-Emergence Protocol; settings: Amaranthus retroflexus, pre-emergence, 312 h, evaluated after 13 days; for pest or weed control at 15.625 g/ha: 15.625 g ai/ha; for pest or weed control at 15.625 g/ha / pest or weed control at 250 g/ha: read-out: Pigweed, Redroot damage rating (100=total damage to plant; 0=no damage to plant); for pest or weed control at 62.5 g/ha: 62.5 g ai/ha, 100=total damage to plant, 0=no damage to plant, read-out: plant damage rating, Pigweed, Redroot; for pest or weed control at 250 g/ha: 250 g ai/ha
Summary of the method: as §2

[10] = test system: ivy-leaved morning glory (Ipomoea hederacea); assay: Test G Pre-Emergence Protocol; settings: Ipomoea, pre-emergence, 312 h, evaluated after 13 days; for pest or weed control at 15.625 g/ha: 15.625 g ai/ha, read-out: Morning-glory, Ivy-leaved damage rating (100=total damage to plant; 0=no damage to plant); for pest or weed control at 62.5 g/ha: 62.5 g ai/ha, 100=total damage to plant, 0=no damage to plant, read-out: plant damage rating, Morningglory, Ivy-leaved; for pest or weed control at 250 g/ha: 250 g ai/ha, read-out: Morningglory, Ivy-leaved damage rating (100=total damage to plant; 0=no damage to plant)
Summary of the method: as §2

[11] = test system: giant foxtail (Setaria faberi); assay: Test G Pre-Emergence Protocol; settings: Setaria faberi, pre-emergence, 312 h, evaluated after 13 days; for pest or weed control at 15.625 g/ha: 15.625 g ai/ha; for pest or weed control at 15.625 g/ha / pest or weed control at 250 g/ha: read-out: Foxtail, Giant damage rating (100=total damage to plant; 0=no damage to plant); for pest or weed control at 62.5 g/ha: 62.5 g ai/ha, 100=total damage to plant, 0=no damage to plant, read-out: plant damage rating, Foxtail, Giant; for pest or weed control at 250 g/ha: 250 g ai/ha
Summary of the method: as §2

corn (Zea mays) [12] = assay: Test G Pre-Emergence Protocol; settings: Zea mays, pre-emergence, 312 h, evaluated after 13 days; for plant injury at 15.625 g/ha: 15.625 g ai/ha; for plant injury at 15.625 g/ha / plant injury at 250 g/ha: read-out: Corn damage rating (100=total damage to plant; 0=no damage to plant); for plant injury at 62.5 g/ha: 62.5 g ai/ha, 100=total damage to plant, 0=no damage to plant, read-out: plant damage rating, Corn; for plant injury at 250 g/ha: 250 g ai/ha
Summary of the method: as §2

Structure (SMILES) | pest or weed control at 15.625 g/ha [1] [%] | pest or weed control at 62.5 g/ha [1] [%] | pest or weed control at 250 g/ha [1] [%] | pest or weed control at 15.625 g/ha [2] [%] | pest or weed control at 62.5 g/ha [2] [%] | pest or weed control at 250 g/ha [2] [%] | pest or weed control at 15.625 g/ha [3] [%] | pest or weed control at 62.5 g/ha [3] [%] | pest or weed control at 250 g/ha [3] [%] | pest or weed control at 15.625 g/ha [4] [%] | pest or weed control at 15.625 g/ha [5] [%] | pest or weed control at 62.5 g/ha [5] [%] | pest or weed control at 250 g/ha [5] [%] | plant injury at 15.625 g/ha (corn (Zea mays) [6]) [%] | plant injury at 62.5 g/ha (corn (Zea mays) [6]) [%] | plant injury at 250 g/ha (corn (Zea mays) [6]) [%] | pest or weed control at 15.625 g/ha [7] [%] | pest or weed control at 62.5 g/ha [7] [%] | pest or weed control at 250 g/ha [7] [%] | pest or weed control at 15.625 g/ha [8] [%] | other results
Cc1n[nH]c(NC(=O)[C@@H]2C(=O)N(C)C[C@H]2c2ccc(C(F)(F)F)cc2)c1C#N (racemic) [Compound 1582] | 0 | 0 | 0 | 0 | 0 | 0 | 0 | 0 | 0 | 0 | 0 | 0 | 0 | 0 | 0 | 0 | 0 | 0 | 0 | 0 | pest or weed control at 62.5 g/ha [8]: 0%; pest or weed control at 250 g/ha [8]: 0%; pest or weed control at 15.625 g/ha [9]: 0%; pest or weed control at 62.5 g/ha [9]: 0%; pest or weed control at 250 g/ha [9]: 0%; pest or weed control at 15.625 g/ha [10]: 0%; pest or weed control at 62.5 g/ha [10]: 0%; pest or weed control at 250 g/ha [10]: 0%; pest or weed control at 15.625 g/ha [11]: 0%; pest or weed control at 62.5 g/ha [11]: 0%; pest or weed control at 250 g/ha [11]: 0%; plant injury at 15.625 g/ha (corn (Zea mays) [12]): 0%; plant injury at 62.5 g/ha (corn (Zea mays) [12]): 0%; plant injury at 250 g/ha (corn (Zea mays) [12]): 0%
CN1C[C@@H](c2ccc(C(F)(F)F)cc2)[C@H](C(=O)Nc2cncnc2)C1=O (racemic) [Compound 1583] | 0 | 0 | 20 | 0 | 0 | 20 | 0 | 0 | 20 | 0 | 0 | 20 | 10 | 0 | 0 | 0 | 0 | 0 | 0 | 0 | pest or weed control at 62.5 g/ha [4]: 10%; pest or weed control at 250 g/ha [4]: 30%; pest or weed control at 62.5 g/ha [8]: 0%; pest or weed control at 250 g/ha [8]: 0%; pest or weed control at 15.625 g/ha [9]: 0%; pest or weed control at 62.5 g/ha [9]: 0%; pest or weed control at 250 g/ha [9]: 30%; pest or weed control at 15.625 g/ha [10]: 0%; pest or weed control at 62.5 g/ha [10]: 0%; pest or weed control at 250 g/ha [10]: 0%; pest or weed control at 15.625 g/ha [11]: 0%; pest or weed control at 62.5 g/ha [11]: 0%; pest or weed control at 250 g/ha [11]: 30%; plant injury at 15.625 g/ha (corn (Zea mays) [12]): 0%; plant injury at 62.5 g/ha (corn (Zea mays) [12]): 0%; plant injury at 250 g/ha (corn (Zea mays) [12]): 0%
CSc1ccccc1NC(=O)[C@@H]1C(=O)N(C)C[C@H]1c1ccc(C(F)(F)F)nc1 (racemic) [Compound 1584] | 0 | 0 | 70 | 0 | 0 | 20 | 0 | 0 | 40 | 0 | 0 | 40 | 80 | 0 | 10 | 0 | 0 | 0 | 90 | 0 | pest or weed control at 62.5 g/ha [4]: 20%; pest or weed control at 250 g/ha [4]: 10%; pest or weed control at 62.5 g/ha [8]: 0%; pest or weed control at 250 g/ha [8]: 20%; pest or weed control at 15.625 g/ha [9]: 0%; pest or weed control at 62.5 g/ha [9]: 0%; pest or weed control at 250 g/ha [9]: 60%; pest or weed control at 15.625 g/ha [10]: 0%; pest or weed control at 62.5 g/ha [10]: 0%; pest or weed control at 250 g/ha [10]: 10%; pest or weed control at 15.625 g/ha [11]: 0%; pest or weed control at 62.5 g/ha [11]: 50%; pest or weed control at 250 g/ha [11]: 90%; plant injury at 15.625 g/ha (corn (Zea mays) [12]): 0%; plant injury at 62.5 g/ha (corn (Zea mays) [12]): 0%; plant injury at 250 g/ha (corn (Zea mays) [12]): 70%
